Data: PubChem BioAssay (NCI)
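Results reflect a 48-hour exposure of cells in 96-well plates to compound at five concentrations. GI50 = concentration required for 50% inhibition of growth. TGI marks complete inhibition of growth.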

Columns and labels:
Experiment in all cases: NCI tumour cell line growth inhibition, 48 h
HS 578T breast = tested on: HS 578T breast
U251 CNS = tested on: U251 CNS
TK-10 renal = tested on: TK-10 renal
HL-60(TB) leukemia = tested on: HL-60(TB) leukemia
786-0 renal = tested on: 786-0 renal
HOP-62 NSCLC = tested on: HOP-62 NSCLC
SK-MEL-28 melanoma = tested on: SK-MEL-28 melanoma
SW-620 colon = tested on: SW-620 colon
SK-OV-3 ovarian = tested on: SK-OV-3 ovarian
SF-268 CNS = tested on: SF-268 CNS

`CCN(CC)c1ccc(/C=C/C(=O)c2ccc(Nc3nc(Nc4ccccc4)nc(Nc4ccccc4)n3)cc2)cc1` was tested, and the GI50 (HS 578T breast) was 4.04 µM, the TGI (HS 578T breast) was 69.5 µM and the GI50 (U251 CNS) was 4.82 µM. For the same compound, the TGI (U251 CNS) was > 100 µM, the GI50 (TK-10 renal) was 2.39 µM and the TGI (TK-10 renal) was 19.8 µM. The GI50 (HL-60(TB) leukemia) was 18 µM, the TGI (HL-60(TB) leukemia) was > 100 µM and the GI50 (786-0 renal) was 5.21 µM. The TGI (786-0 renal) was 27.7 µM, the GI50 (HOP-62 NSCLC) was 2.55 µM and the TGI (HOP-62 NSCLC) was 28.1 µM. For the same compound, the GI50 (SK-MEL-28 melanoma) was 19.8 µM, the TGI (SK-MEL-28 melanoma) was > 100 µM and the GI50 (SW-620 colon) was 31.2 µM. The TGI (SW-620 colon) was > 100 µM, the GI50 (SK-OV-3 ovarian) was 10.6 µM and the TGI (SK-OV-3 ovarian) was > 100 µM. For the same compound, the GI50 (SF-268 CNS) was 8.51 µM and the TGI (SF-268 CNS) was 47.2 µM.
`CC(=O)Nc1ccc(C(=O)CCl)cc1` was tested, and the GI50 (HS 578T breast) was 17.7 µM, the TGI (HS 578T breast) was 80.5 µM and the GI50 (U251 CNS) was 12.4 µM. It also gave a TGI (U251 CNS) of 25.1 µM, a GI50 (TK-10 renal) of 2.82 µM and a TGI (TK-10 renal) of 7.71 µM. The GI50 (HL-60(TB) leukemia) was 2.4 µM, the TGI (HL-60(TB) leukemia) was 5.86 µM and the GI50 (786-0 renal) was 4.41 µM. For the same compound, the TGI (786-0 renal) was 15.2 µM, the GI50 (HOP-62 NSCLC) was 15 µM and the TGI (HOP-62 NSCLC) was 32.1 µM. It also gave a GI50 (SK-MEL-28 melanoma) of 2.49 µM, a TGI (SK-MEL-28 melanoma) of 7.54 µM and a GI50 (SW-620 colon) of 1.73 µM. For the same compound, the TGI (SW-620 colon) was 3.38 µM, the GI50 (SK-OV-3 ovarian) was 15.1 µM and the TGI (SK-OV-3 ovarian) was 28.3 µM. For the same compound, the GI50 (SF-268 CNS) was 13.9 µM and the TGI (SF-268 CNS) was 29.5 µM.
Compound `O=C(Nc1ccc(Oc2ccc(F)cc2)cc1)[C@@H]1C[C@@H](Cc2ccc(F)cc2)CN1C(=O)Cn1ccnn1` has a GI50 (HS 578T breast) of 11.5 µM, a TGI (HS 578T breast) of 51.9 µM and a GI50 (U251 CNS) of 4.79 µM. For the same compound, the TGI (U251 CNS) was 22.2 µM, the GI50 (TK-10 renal) was 8.74 µM and the TGI (TK-10 renal) was 35.3 µM. It also gave a GI50 (HL-60(TB) leukemia) of 3.7 µM, a TGI (HL-60(TB) leukemia) of 17.8 µM and a GI50 (786-0 renal) of 10.5 µM. The TGI (786-0 renal) was 34.2 µM, the GI50 (HOP-62 NSCLC) was 12.3 µM and the TGI (HOP-62 NSCLC) was 31.5 µM. It also gave a GI50 (SK-MEL-28 melanoma) of 6.72 µM, a TGI (SK-MEL-28 melanoma) of 20.6 µM and a GI50 (SW-620 colon) of 12.6 µM. The TGI (SW-620 colon) was 40 µM, the GI50 (SK-OV-3 ovarian) was 19.5 µM and the TGI (SK-OV-3 ovarian) was > 75.7 µM. The GI50 (SF-268 CNS) was 8.55 µM and the TGI (SF-268 CNS) was 33.8 µM.
In the case of `Oc1ccc(Br)cc1C=Nc1cccc(C(F)(F)F)c1`, the TGI (HS 578T breast) is reported as 83.3 µM, the TGI (U251 CNS) is reported as 45.1 µM and the TGI (TK-10 renal) is reported as > 100 µM. The TGI (HL-60(TB) leukemia) was 34.4 µM, the TGI (786-0 renal) was > 100 µM and the TGI (HOP-62 NSCLC) was > 100 µM. The TGI (SK-MEL-28 melanoma) was > 100 µM, the TGI (SW-620 colon) was > 100 µM and the TGI (SK-OV-3 ovarian) was > 100 µM. For the same compound, the TGI (SF-268 CNS) was > 100 µM.
`O=C1Nc2ccc(Cl)cc2/C1=C\c1c(-c2ccc(Cl)cc2)nc2sc(C3CC3)nn12` gave a GI50 (HS 578T breast) of 2.31 µM, a TGI (HS 578T breast) of 6.85 µM and a GI50 (U251 CNS) of 3.29 µM. It also gave a TGI (U251 CNS) of 13.1 µM, a GI50 (TK-10 renal) of 3.1 µM and a TGI (TK-10 renal) of 7.97 µM. For the same compound, the GI50 (HL-60(TB) leukemia) was 40.8 µM, the TGI (HL-60(TB) leukemia) was > 100 µM and the GI50 (786-0 renal) was 4.68 µM. The TGI (786-0 renal) was 18.8 µM, the GI50 (HOP-62 NSCLC) was 1.75 µM and the TGI (HOP-62 NSCLC) was 4.21 µM. It also gave a GI50 (SK-MEL-28 melanoma) of 3.49 µM, a TGI (SK-MEL-28 melanoma) of 13.7 µM and a GI50 (SW-620 colon) of 7.65 µM. For the same compound, the TGI (SW-620 colon) was 55 µM, the GI50 (SK-OV-3 ovarian) was 2.51 µM and the TGI (SK-OV-3 ovarian) was 6.64 µM. It also gave a GI50 (SF-268 CNS) of 3.21 µM and a TGI (SF-268 CNS) of 12.9 µM.
`CCOC(=O)[C@@H](C)C[C@H](Cc1ccccc1)NC(=O)c1csc([C@@H](C[C@H](C(C)C)N(C)C(=O)[C@@H](NC(=O)[C@H]2CCCCN2C)C(C)(C)CC)OC(C)=O)n1` was tested, and the GI50 (HS 578T breast) was < 0.00167 µM, the TGI (HS 578T breast) was 2.17 µM and the GI50 (U251 CNS) was < 0.00167 µM. For the same compound, the TGI (U251 CNS) was > 7.64 µM, the GI50 (TK-10 renal) was 0.0418 µM and the TGI (TK-10 renal) was > 16.7 µM. The GI50 (HL-60(TB) leukemia) was < 0.00167 µM, the TGI (HL-60(TB) leukemia) was 0.0034 µM and the GI50 (786-0 renal) was < 0.00167 µM. The TGI (786-0 renal) was 4.86 µM, the GI50 (HOP-62 NSCLC) was 0.00178 µM and the TGI (HOP-62 NSCLC) was > 16.7 µM. The GI50 (SK-MEL-28 melanoma) was 1.2 µM, the TGI (SK-MEL-28 melanoma) was > 16.7 µM and the GI50 (SW-620 colon) was < 0.00167 µM. For the same compound, the TGI (SW-620 colon) was > 16.7 µM, the GI50 (SK-OV-3 ovarian) was < 0.00167 µM and the TGI (SK-OV-3 ovarian) was > 16.7 µM. For the same compound, the GI50 (SF-268 CNS) was 0.00278 µM and the TGI (SF-268 CNS) was > 12.8 µM.
With `O=C(CS(=O)(=O)c1nc2ccccc2nc1-c1ccccc1)Nc1ccc(F)cc1` the GI50 (HS 578T breast) was 29.7 µM, the TGI (HS 578T breast) was 94.3 µM and the GI50 (U251 CNS) was 37.9 µM. For the same compound, the TGI (U251 CNS) was > 100 µM, the GI50 (TK-10 renal) was > 100 µM and the TGI (TK-10 renal) was > 100 µM. For the same compound, the GI50 (HL-60(TB) leukemia) was 1.8 µM, the TGI (HL-60(TB) leukemia) was 10.3 µM and the GI50 (786-0 renal) was > 100 µM. For the same compound, the TGI (786-0 renal) was > 100 µM, the GI50 (HOP-62 NSCLC) was > 100 µM and the TGI (HOP-62 NSCLC) was > 100 µM. The GI50 (SK-MEL-28 melanoma) was > 100 µM, the TGI (SK-MEL-28 melanoma) was > 100 µM and the GI50 (SW-620 colon) was 46.6 µM. The TGI (SW-620 colon) was > 100 µM, the GI50 (SK-OV-3 ovarian) was > 100 µM and the TGI (SK-OV-3 ovarian) was > 100 µM. For the same compound, the GI50 (SF-268 CNS) was 91.8 µM and the TGI (SF-268 CNS) was > 100 µM.
For `COc1cccc2c1-c1nc(N)c3c(OC)cccc3c1C2=O`, the TGI (HS 578T breast) was 52.3 µM, the TGI (U251 CNS) was > 100 µM and the TGI (TK-10 renal) was > 100 µM. The TGI (HL-60(TB) leukemia) was 72.5 µM, the TGI (786-0 renal) was > 100 µM and the TGI (HOP-62 NSCLC) was 58.5 µM. For the same compound, the TGI (SK-MEL-28 melanoma) was > 100 µM, the TGI (SW-620 colon) was > 100 µM and the TGI (SK-OV-3 ovarian) was > 100 µM. The TGI (SF-268 CNS) was > 100 µM.
In the case of `C=C1C(=O)O[C@H]2[C@H]1CC/C(COC(=O)c1cc(OC)c(OC)c(OC)c1)=C\CC[C@@]1(C)O[C@@H]21`, the GI50 (HS 578T breast) is reported as 3.68 µM, the TGI (HS 578T breast) is reported as 32.7 µM and the GI50 (U251 CNS) is reported as 1.6 µM. The TGI (U251 CNS) was 3.47 µM, the GI50 (TK-10 renal) was 1.22 µM and the TGI (TK-10 renal) was 2.7 µM. It also gave a GI50 (HL-60(TB) leukemia) of 0.711 µM, a TGI (HL-60(TB) leukemia) of 2.95 µM and a GI50 (786-0 renal) of 1.27 µM. It also gave a TGI (786-0 renal) of 2.72 µM, a GI50 (HOP-62 NSCLC) of 2.4 µM and a TGI (HOP-62 NSCLC) of 11.5 µM. The GI50 (SK-MEL-28 melanoma) was 1.59 µM, the TGI (SK-MEL-28 melanoma) was 3.37 µM and the GI50 (SW-620 colon) was 0.355 µM. For the same compound, the TGI (SW-620 colon) was 1.57 µM, the GI50 (SK-OV-3 ovarian) was 5.22 µM and the TGI (SK-OV-3 ovarian) was 16.8 µM. It also gave a GI50 (SF-268 CNS) of 1.46 µM and a TGI (SF-268 CNS) of 3.42 µM.
